We go through four molecules from patent US20250326753A1, “DUAL CXCR4-BTK INHIBITORS” (X4 Pharmaceuticals, Inc., priority 2022, published 2025).

Where two headings read alike, the source gives them in different places.

What all share (type): biochemical
In one assay the target is T1, FER (Homo sapiens, UniProt P16591).
T1 construct: purchased Reaction Biology Europe GmbH
In words: PanQinase kinase panel: FER. As to conditions: read-out: INHIBITORY EFFECT @ 1 uM: FER. Here is the method: (§1) Screening procedures were performed in accordance with the company's on-line protocol [accessed on-line Mar.
(§2) For each kinase, the median value of the cpm of three wells was defined as “low control” (n=3). This value reflects unspecific binding of radioactivity to the plate in the absence of a protein kinase but in the presence of the substrate. Additionally, for each kinase the median value of the cpm of three other wells was taken as the “high control,” i.e. full activity in the absence of any inhibitor (n=3). The difference between high and low control of each enzyme was taken as 100% activity.
(§3) As part of the data evaluation the low control of each kinase was subtracted from the high control value as well as from their corresponding “compound values”. The residual activity (in %) for each compound well was calculated by using the following formula: Res. Activity (%)=100×[(signal of compound−low control)/(high control−low control)].

The target in a further assay is T2, MEKK3 (Homo sapiens, UniProt Q99759).
T2 construct: purchased Reaction Biology Europe GmbH
T2 sequence (Q99759 1-626): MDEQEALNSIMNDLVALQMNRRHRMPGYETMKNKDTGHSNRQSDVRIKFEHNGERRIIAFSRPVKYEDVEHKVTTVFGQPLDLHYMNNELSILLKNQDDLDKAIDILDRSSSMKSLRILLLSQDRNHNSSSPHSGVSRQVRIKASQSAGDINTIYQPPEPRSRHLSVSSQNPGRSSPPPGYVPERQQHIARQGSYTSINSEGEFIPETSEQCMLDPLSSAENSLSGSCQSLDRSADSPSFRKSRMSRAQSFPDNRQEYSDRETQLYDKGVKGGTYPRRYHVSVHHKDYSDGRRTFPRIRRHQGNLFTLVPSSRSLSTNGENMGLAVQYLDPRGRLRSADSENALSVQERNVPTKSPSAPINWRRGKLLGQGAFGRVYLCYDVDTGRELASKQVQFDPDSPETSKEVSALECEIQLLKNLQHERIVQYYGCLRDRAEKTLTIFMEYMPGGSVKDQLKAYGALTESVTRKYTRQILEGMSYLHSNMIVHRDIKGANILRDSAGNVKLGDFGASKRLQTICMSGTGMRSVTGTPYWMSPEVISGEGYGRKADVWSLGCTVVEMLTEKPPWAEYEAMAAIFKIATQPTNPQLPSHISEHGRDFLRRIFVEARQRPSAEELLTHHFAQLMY
In words: PanQinase kinase panel: MEKK3. To be noted: read-out: INHIBITORY EFFECT @ 1 uM: MEKK3. Here is the method: as §1, §2, §3

The target in a further assay is T3, TRKB (Homo sapiens, UniProt Q16620).
T3 construct: purchased Reaction Biology Europe GmbH
The assay is described as follows: PanQinase kinase panel: TRKB. As to conditions: read-out: INHIBITORY EFFECT @ 1 uM: TRKB. Here is the method: as §1, §2, §3

In a further assay the target is T4, ERBB4 (Homo sapiens, UniProt Q15303).
T4 construct: purchased Reaction Biology Europe GmbH
In words: PanQinase kinase panel: ERBB4. As to conditions: read-out: INHIBITORY EFFECT @ 1 uM: ERBB4. Here is the method:
as §1, §2
(§4) As part of the data evaluation the low control of each kinase was subtracted from the high control value as well as from their corresponding “compound values”.

A further assay addresses T5, MAP4K5 (Homo sapiens, UniProt Q9Y4K4).
T5 construct: purchased Reaction Biology Europe GmbH
The assay is described as follows: PanQinase kinase panel: MAP4K5. To be noted: read-out: INHIBITORY EFFECT @ 1 uM: MAP4K5. Here is the method: as §1, §2, §3

In the next assay the target is T6, RIPK5 (Homo sapiens, UniProt Q6XUX3).
T6 construct: purchased Reaction Biology Europe GmbH
T6 sequence (Q6XUX3 1-929): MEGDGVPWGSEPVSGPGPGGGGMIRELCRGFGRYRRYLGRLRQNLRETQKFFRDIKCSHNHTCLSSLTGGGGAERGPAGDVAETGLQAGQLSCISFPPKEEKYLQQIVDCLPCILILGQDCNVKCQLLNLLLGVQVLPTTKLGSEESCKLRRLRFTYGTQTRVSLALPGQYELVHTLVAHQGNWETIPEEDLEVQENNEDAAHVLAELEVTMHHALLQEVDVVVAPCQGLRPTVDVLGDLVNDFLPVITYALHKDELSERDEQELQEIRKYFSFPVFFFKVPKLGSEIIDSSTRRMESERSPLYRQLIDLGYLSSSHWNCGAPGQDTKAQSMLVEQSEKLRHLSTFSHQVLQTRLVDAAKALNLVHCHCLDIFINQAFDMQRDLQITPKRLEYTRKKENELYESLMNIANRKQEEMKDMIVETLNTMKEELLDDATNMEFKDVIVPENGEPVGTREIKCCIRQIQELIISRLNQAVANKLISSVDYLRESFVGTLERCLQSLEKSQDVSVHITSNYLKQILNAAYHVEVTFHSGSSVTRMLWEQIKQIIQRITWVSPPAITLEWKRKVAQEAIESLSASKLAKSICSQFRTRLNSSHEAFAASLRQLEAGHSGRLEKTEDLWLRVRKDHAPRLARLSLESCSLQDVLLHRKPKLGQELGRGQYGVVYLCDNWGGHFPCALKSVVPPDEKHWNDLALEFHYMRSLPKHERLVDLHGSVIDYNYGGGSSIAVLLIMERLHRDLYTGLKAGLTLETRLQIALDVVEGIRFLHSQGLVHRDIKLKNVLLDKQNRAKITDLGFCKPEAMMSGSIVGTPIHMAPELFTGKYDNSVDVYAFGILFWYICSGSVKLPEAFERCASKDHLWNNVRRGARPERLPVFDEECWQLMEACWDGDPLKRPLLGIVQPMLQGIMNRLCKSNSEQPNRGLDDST
The assay is described as follows: PanQinase kinase panel: RIPK5. As to conditions: read-out: INHIBITORY EFFECT @ 1 uM: RIPK5. Here is the method: as §1, §2, §3

The next assay concerns the target T7, SIK2 (Homo sapiens, UniProt Q9H0K1).
T7 construct: purchased Reaction Biology Europe GmbH
The assay is described as follows: PanQinase kinase panel: SIK2. As to the method:
as §1, §2, §3

For the next assay, the target named is T8, BRK (Homo sapiens, UniProt Q13882).
T8 construct: purchased Reaction Biology Europe GmbH
The assay is described as follows: PanQinase kinase panel: BRK. As to conditions: read-out: INHIBITORY EFFECT @ 1 uM: BRK. As to the method: as §1, §2, §4

For a further assay, the target named is T9, CLK1 (Homo sapiens, UniProt P49759).
T9 construct: purchased Reaction Biology Europe GmbH
In words: PanQinase kinase panel: CLK1. Here is the method:
as §1, §2, §3

The mark [1] stands for this setting: read-out: INHIBITORY EFFECT @ 1 uM: SIK2.
Setting [2] is: read-out: INHIBITORY EFFECT @ 1 uM: CLK1.

T1 sequence (P16591 whole entry): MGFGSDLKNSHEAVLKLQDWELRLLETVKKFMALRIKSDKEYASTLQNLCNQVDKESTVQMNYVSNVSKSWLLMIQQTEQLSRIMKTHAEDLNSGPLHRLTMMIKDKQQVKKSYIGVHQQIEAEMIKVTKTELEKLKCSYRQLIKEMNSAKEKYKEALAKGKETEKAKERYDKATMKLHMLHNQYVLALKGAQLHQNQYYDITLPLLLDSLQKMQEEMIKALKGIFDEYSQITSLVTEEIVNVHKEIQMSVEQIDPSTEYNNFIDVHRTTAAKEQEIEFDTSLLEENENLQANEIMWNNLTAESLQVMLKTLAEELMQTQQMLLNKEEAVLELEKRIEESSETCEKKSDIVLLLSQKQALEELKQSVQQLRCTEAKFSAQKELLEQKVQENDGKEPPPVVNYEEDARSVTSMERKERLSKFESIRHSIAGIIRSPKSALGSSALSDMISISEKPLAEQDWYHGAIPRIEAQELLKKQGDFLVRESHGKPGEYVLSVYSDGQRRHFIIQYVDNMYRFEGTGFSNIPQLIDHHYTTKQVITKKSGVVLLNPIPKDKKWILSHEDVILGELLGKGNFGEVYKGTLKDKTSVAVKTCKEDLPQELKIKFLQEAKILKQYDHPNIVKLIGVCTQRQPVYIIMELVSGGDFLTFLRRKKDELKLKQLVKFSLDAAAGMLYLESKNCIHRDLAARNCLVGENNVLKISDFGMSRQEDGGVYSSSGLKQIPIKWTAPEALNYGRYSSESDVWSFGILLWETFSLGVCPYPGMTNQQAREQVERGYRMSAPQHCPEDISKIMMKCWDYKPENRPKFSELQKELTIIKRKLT
T9 sequence (P49759 whole entry): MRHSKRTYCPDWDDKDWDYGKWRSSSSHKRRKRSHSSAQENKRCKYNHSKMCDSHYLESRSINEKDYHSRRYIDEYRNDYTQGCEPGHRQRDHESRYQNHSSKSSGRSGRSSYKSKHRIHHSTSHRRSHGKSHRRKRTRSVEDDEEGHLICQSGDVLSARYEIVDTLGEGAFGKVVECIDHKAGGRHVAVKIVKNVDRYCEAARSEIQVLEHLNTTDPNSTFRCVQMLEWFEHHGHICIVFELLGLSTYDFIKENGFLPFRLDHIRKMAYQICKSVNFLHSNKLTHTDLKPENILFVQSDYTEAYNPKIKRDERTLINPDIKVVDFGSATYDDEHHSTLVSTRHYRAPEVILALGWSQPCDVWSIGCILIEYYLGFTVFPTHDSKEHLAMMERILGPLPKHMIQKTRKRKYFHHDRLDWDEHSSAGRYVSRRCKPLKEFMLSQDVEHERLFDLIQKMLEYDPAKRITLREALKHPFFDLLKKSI
T5 sequence (Q9Y4K4 whole entry): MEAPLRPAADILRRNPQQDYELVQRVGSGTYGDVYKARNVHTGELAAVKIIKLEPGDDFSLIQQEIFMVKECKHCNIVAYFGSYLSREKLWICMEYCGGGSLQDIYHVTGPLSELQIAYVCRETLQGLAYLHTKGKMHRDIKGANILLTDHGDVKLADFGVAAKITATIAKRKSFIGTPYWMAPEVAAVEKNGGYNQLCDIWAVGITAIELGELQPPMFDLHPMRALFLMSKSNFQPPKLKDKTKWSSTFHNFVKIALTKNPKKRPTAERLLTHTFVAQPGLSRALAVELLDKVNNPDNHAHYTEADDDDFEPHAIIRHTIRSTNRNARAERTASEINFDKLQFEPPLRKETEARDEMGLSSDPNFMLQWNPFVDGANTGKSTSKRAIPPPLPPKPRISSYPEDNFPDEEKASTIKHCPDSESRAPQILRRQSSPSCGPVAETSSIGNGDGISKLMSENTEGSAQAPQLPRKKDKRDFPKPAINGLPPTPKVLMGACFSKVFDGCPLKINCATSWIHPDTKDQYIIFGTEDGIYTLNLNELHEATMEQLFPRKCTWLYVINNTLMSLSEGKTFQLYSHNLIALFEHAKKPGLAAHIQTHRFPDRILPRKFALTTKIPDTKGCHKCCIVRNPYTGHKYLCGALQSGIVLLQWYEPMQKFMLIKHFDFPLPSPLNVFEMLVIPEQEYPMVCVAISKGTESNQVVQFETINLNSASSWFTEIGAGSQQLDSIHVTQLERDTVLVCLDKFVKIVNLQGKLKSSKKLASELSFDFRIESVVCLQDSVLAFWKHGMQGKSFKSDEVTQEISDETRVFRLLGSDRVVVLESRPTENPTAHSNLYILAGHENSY
T8 sequence (Q13882 whole entry): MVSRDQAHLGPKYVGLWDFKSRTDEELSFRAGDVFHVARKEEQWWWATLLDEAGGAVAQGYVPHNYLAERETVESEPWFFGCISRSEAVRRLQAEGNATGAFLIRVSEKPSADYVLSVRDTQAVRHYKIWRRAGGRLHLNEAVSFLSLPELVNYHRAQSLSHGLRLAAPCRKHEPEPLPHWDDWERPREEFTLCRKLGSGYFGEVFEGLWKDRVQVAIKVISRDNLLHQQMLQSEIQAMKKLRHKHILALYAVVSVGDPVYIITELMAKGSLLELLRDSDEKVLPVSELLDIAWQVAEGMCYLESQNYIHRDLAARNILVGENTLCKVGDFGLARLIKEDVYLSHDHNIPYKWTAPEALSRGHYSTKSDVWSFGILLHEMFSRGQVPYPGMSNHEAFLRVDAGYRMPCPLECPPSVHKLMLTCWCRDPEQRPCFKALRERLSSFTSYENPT
T4 sequence (Q15303 26-1308): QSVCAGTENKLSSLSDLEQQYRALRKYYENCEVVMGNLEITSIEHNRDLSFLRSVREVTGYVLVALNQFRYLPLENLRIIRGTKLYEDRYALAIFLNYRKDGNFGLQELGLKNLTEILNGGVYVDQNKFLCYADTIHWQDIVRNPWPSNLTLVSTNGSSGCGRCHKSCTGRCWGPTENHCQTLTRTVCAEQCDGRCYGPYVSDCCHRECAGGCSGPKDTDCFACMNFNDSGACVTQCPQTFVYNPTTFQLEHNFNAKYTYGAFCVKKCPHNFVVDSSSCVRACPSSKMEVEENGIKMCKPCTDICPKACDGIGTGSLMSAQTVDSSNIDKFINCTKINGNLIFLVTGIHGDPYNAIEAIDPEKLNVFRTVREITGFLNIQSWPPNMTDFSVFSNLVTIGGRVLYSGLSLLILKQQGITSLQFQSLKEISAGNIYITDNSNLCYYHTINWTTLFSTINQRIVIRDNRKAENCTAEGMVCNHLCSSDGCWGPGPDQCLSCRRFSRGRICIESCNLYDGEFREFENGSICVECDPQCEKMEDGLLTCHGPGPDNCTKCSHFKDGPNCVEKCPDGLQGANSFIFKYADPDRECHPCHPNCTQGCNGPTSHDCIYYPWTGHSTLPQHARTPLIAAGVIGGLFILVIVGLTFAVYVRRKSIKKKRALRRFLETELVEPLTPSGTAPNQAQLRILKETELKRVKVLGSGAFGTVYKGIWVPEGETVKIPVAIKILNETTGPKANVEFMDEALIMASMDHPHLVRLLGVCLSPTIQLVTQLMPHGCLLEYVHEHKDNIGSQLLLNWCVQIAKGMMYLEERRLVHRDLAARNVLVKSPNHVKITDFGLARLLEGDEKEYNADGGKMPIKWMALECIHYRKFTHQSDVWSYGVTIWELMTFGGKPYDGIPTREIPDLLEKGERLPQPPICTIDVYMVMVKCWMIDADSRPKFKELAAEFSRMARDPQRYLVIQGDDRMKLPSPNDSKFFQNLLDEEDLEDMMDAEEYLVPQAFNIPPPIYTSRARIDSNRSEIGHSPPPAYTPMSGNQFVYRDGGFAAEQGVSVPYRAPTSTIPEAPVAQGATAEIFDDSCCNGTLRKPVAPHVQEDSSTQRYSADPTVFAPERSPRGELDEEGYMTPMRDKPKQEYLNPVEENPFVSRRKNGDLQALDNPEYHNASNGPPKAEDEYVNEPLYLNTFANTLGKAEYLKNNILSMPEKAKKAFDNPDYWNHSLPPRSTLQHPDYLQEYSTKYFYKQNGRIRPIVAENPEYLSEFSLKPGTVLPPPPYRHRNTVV
T3 sequence (Q16620 32-822): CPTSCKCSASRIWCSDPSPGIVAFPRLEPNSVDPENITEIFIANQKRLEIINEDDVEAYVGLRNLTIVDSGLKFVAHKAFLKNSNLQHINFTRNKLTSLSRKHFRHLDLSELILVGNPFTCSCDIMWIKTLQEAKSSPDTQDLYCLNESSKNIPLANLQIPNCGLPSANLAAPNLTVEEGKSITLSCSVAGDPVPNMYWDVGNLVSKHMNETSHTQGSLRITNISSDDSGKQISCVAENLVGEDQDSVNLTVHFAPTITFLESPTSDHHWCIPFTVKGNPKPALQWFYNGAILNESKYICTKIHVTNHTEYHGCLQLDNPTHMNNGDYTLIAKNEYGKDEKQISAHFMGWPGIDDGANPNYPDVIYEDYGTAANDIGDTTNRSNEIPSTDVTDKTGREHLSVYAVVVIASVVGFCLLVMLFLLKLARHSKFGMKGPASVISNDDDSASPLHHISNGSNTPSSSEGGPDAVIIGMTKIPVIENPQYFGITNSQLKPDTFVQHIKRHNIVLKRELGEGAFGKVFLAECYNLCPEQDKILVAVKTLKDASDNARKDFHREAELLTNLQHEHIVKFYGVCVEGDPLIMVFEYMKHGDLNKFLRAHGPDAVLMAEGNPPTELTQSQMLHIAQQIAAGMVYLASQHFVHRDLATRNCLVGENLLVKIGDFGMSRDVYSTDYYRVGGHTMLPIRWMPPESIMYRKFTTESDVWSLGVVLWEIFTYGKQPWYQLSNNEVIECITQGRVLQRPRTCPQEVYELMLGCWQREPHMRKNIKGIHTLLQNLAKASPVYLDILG

Consider `O=C(c1ccc(Oc2ccccc2)cc1Cl)c1c[nH]c2ncnc(N[C@@H]3CC[C@@H](CO)OC3)c12` [ARQ-531, (2-chloro-4-phenoxyphenyl) (4-(((3R,6S)-6-(hydroxymethyl)tetrahydro-2H-pyran-3-yl)amino)-7H-pyrrolo[2,3-d]pyrimidin-5-yl) methanone], for which the inhibition at 1 µM on FER is 70 to 89%; at MEKK3 it was 50 to 69%; on TRKB, under 50%; on ERBB4, 90 to 100%; on MAP4K5 it was 50 to 69%; at RIPK5, 70 to 89%.
As for `Cc1cccnc1[C@H]1CCC[C@@H](c2ncccc2C)N1CCN1CCN(C(=O)c2ccc(-c3cc4c(-c5cccc(NC(=O)c6ccccc6)c5C)ncnc4[nH]3)cc2)CC1` [Compound I-10, N-(3-(6-(4-(4-(2-((2R,6S)-2,6-bis(3-methylpyridin-2-yl)piperidin-1-yl)ethyl)piperazine-1-carbonyl)phenyl)-7H-pyrrolo[2,3-d]pyrimidin-4-yl)-2-methylphenyl)benzamide], the inhibition at 1 µM at FER was under 50%; at SIK2 (at 1 μM, read-out: inhibition of SIK2) it was 50 to 89%; at SIK2 (setting [1]), 50 to 69%; at MEKK3, under 50%; on TRKB it was under 50%; on BRK it was under 50%. Further, the inhibition at 1 µM at ERBB4 was under 50%; on MAP4K5 it was under 50%; at RIPK5, under 50%; on CLK1 (at 1 μM, read-out: inhibition of CLK1), 50 to 89%; on CLK1 (setting [2]), 50 to 69%.
As to `COc1ccc(F)cc1C(=O)NCc1ccc(-c2nn([C@@H](C)C(F)(F)F)c(N)c2C(N)=O)cc1` [LOXO-305, pirtobrutinib], the inhibition at 1 µM on FER was under 50%; at SIK2 (setting [1]) it was under 50%; at MEKK3, under 50%; at TRKB it was 50 to 69%; at BRK, 70 to 89%; on ERBB4, 50 to 69%. The inhibition at 1 µM at MAP4K5, on RIPK5 and at CLK1 (setting [2]) was under 50% in each case.
With `C=CC(=O)N1CCC([C@@H]2CCNc3c(C(N)=O)c(-c4ccc(Oc5ccccc5)cc4)nn32)CC1` [Zanubrutinib, (7S)-2-(4-phenoxyphenyl)-7-(1-prop-2-enoylpiperidin-4-yl)-4,5,6,7-tetrahydropyrazolo[1,5-a]pyrimidine-3-carboxamide], the inhibition at 1 µM at FER is under 50%; on SIK2 (setting [1]) it was under 50%; at MEKK3, under 50%; at TRKB, under 50%; at BRK it was 90 to 100%; on MAP4K5, under 50%. The inhibition at 1 µM at RIPK5 and on CLK1 (setting [2]) was under 50% each time.
